What is called IC50 is the point on the concentration scale where inhibition reaches its midpoint.

Type in all cases: functional, cell-based
The test system of one assay is T98G. The assay can be described thus: Cytotoxicity against human T98 cells assessed as reduction in cell viability after 24 hrs by CCK8 assay.
The test system of the next assay is MCF7. The assay can be described thus: Cytotoxicity against human MCF7 cells assessed as reduction in cell viability after 24 hrs by CCK8 assay. The following applies: MCF7, 24 h. (In general: Tetrazolium dyes change colour on reduction, which living cells bring about.)
The subject of another assay is HepG2. The assay is described as follows: Cytotoxicity against human HepG2 cells assessed as reduction in cell viability after 24 hrs by CCK8 assay. To be noted: HepG2, 24 h.
For another assay, the system named is RAW264.7. The assay can be described thus: Anti-inflammatory activity in mouse RAW264.7 cells assessed as inhibition of LPS-induced NO production after 24 hrs by Griess reagent-based assay. The following applies: RAW264.7, 24 h. For orientation: Nitrite, measured by Griess reagent, commonly stands in for NO production.

Take `CC(C)=CCC/C(C)=C/CC/C(C)=C/CC[C@]1(C)CCC2=C(O1)[C@]1(C)C[C@@](O)(Oc3c1occc3=O)C2=O`: the half-inhibitory concentration (IC50) with T98G, in the assay on MCF7, with HepG2 and with RAW264.7 was above 20 µM throughout.
Turning to `CC(C)=CCC/C(C)=C/CC/C(C)=C/CC[C@]1(C)CCC2=C(O1)[C@@]1(C)C[C@](O)(Oc3c1occc3=O)C2=O`, the 50% inhibitory concentration (IC50) with T98G, with MCF7, in the assay on HepG2 and with RAW264.7 was above 20 µM each time.
For the compound `C[C@@H]1C[C@H]2[C@@H]3CCC4=CC(=O)C=C[C@]4(C)[C@@]3(F)[C@@H](O)C[C@]2(C)[C@@]1(O)C(=O)CO` [DEXAMETHASONE], the IC50 with RAW264.7 worked out at 8.28 µM.

(Values after ChEMBL document CHEMBL4837186, “Structural Elucidation of Garcipaucinones A and B From Garcinia paucinervis Using Quantum Chemical Calculations” (J Nat Prod, 2021).)
